Laboratory results as given in publication PMC9321663, “The DevTox Germ Layer Reporter Platform: An Assay Adaptation of the Human Pluripotent Stem Cell Test” (Toxics, 2022).
Counter-ions that a name gives are not always drawn. Like-named read-outs stand apart in the source and are kept apart here.

How the values were obtained:
[1] = system: SOX17 (endoderm marker) in RUES2-GLR cells; test: DevTox GLR-Endo assay: decrease in percent SOX17-positive cells (AEID 3094, Sox17_dn); settings: for Emax / AC50: Homo sapiens; for Hit Call: Table S2, SOX17-positive cells, cutoff 3*bmad; for DevTox ACC: Table S2, percent SOX17-positive cells; for DevTox ACC / DevTox-GLR Endo ACC: 48 h exposure; for DevTox-GLR Endo ACC: activity concentration at cutoff, SOX17-positive cells; for HIT−CALL: tcpl plot AEID3094, COFF 20.3
How it was run: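 Readouts are loss of SOX17-positive fraction and reduced cell number in endoderm-differentiating RUES2-GLR cells after 48 h of chemical exposure. Controls: undifferentiated and differentiated cells, 0.2% DMSO, and 1 µM SB431542; at least four biological replicates.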

RUES2-GLR cells = test: DevTox GLR-Endo assay: decrease in total cell count, cytotoxicity (AEID 3098, CellCount_dn); settings: for Emax: Homo sapiens, read-out: Cell Count % Max Inhibition
[2] = system: SOX17 (endoderm marker) in RUES2-GLR cells; test: DevTox GLR-Endo assay: increase in percent SOX17-positive cells (AEID 3093, Sox17_up); assay type: cell-based, human; settings: for Emax: Homo sapiens; for HIT−CALL: tcpl plot AEID3093, COFF 20.3
Description: (§1) The total test chemical incubation period was 48 h.
(§2) (Supplementary Materials).

[3] = system: o/c ratio in H9 embryonic stem cells; settings: Teratogen Index, o/c ratio; cited from earlier work
[4] = cited from earlier work; for Development Toxicant Classification: Table S2; for Classification: developmental toxicant classification (Teratogen / Non-Teratogen) of reference and training chemicals, ref DOI per chemical: 10.1093/toxsci/kft239, 10.1093/toxsci/kfaa014, 10.1177/026119290203000204, 10.1038/s41598-020-59542-x; for DT Class.: developmental toxicant classification
[5] = system: SOX2 (ectoderm and pluripotency marker) in RUES2-GLR cells; test: DevTox GLR-Endo assay: increase in percent SOX2-positive cells (AEID 3095, Sox2_up); settings: for MAX_MEAN: tcpl plot AEID3095, maximum mean response; for MAX_MED: tcpl plot AEID3095, maximum median response;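 as to all read-outs here: cells exposed to test chemicals for 48 h in total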
[6] = system: BRA (mesoderm marker) in RUES2-GLR cells; test: DevTox GLR-Endo assay: increase in percent BRA-positive cells (AEID 3096, Bra_up); assay type: cell-based, human; settings: for HIT−CALL: tcpl plot AEID3096, COFF 0.774; for MAX_MEAN: tcpl plot AEID3096, maximum mean response; for MAX_MED: tcpl plot AEID3096, maximum median response
Description: as §1, §2

in vitro = settings: human
[7] = system: SOX17 in H9 human ESC line; settings: SOX17 half-maximal inhibition concentration; read-out: hPST IC50; cited from earlier work
H9 human ESC line = settings: cited from earlier work
[8] = read-out: DevTox % Max Inhibition
[9] = read-out: ga (winning model), tcpl plot AEID3094, gain parameter of winning curve fit (log concentration, µM axis), hit calls only (converted)
[10] = tcpl plot AEID3093, maximum mean response, read-out: MAX_MEAN
[11] = tcpl plot AEID3093, maximum median response, read-out: MAX_MED
[12] = chemicals common with quickPredict
[13] = 48 h, read-out: DevTox-GLR Endo AC50 (µM), SOX17 half-maximal activity concentration, 48 h exposure
[14] = cytotoxicity half-maximal concentration

Row | Compound | Emax [1, 8] [%] | Emax ([1]; read-out: MAX_MEAN) [%] | Emax ([1]; read-out: MAX_MED) [%] | AC50 [1, 9] [µM] | Emax ([1]; read-out: tp (winning model)) [%] | Hit Call [1] | DevTox ACC [1] [µM] | DevTox-GLR Endo ACC [1] [µM] | HIT−CALL [1] | Emax (RUES2-GLR cells) [%] | Cell Count ACC (RUES2-GLR cells; human, 48 h) [µM] | Emax [2, 10] [%] | Emax [2, 11] [%] | HIT−CALL [2] | quickPredict TI [3] [µM] | Development Toxicant Classification [4] | Classification [4] | DT Class. [4, 12] | MAX_MEAN [5] [Percent Activity] | MAX_MED [5] [Percent Activity] | other results
1 | CC[C@H](C)C(=O)O[C@H]1C[C@@H](C)C=C2C=C[C@H](C)[C@H](CC[C@@H]3C[C@@H](O)CC(=O)O3)[C@H]21 [Lovastatin] | 102 | 102 | 102 | 11.2 | 123 | Positive | 0.9345 | 0.93 | 1 | 95.4 | 0.7145 | -9.76 | -10.1 | 0 | 5.1 | Positive | Teratogen | Pos | 21.1 | 14.8 | DevTox-GLR Endo CC (RUES2-GLR cells; human, 48 h): 0.71 µM; AC50 ([5]; Homo sapiens, read-out: ga (winning model)): 36.3 µM; Emax ([5]; Homo sapiens, read-out: tp (winning model)): 13.5%
2 | CCCCC(CC)COC(=O)c1ccccc1C(=O)O (centres unmarked) [MEHP] | – | – | – | – | – | Positive | 76.3285 | 76.33 | 1 | – | – | – | – | 0 | 167 | – | – | – | 1.85 | 1.77 | DevTox % Max Inhibition ([1]; Table S2, percent SOX17-positive cells relative to DMSO): 67.6802%; ga (winning model) ([1]; tcpl plot AEID3094, gain parameter of winning curve fit (log concentration, µM axis), hit calls only): 2.11; MAX_MEAN ([1]; tcpl plot AEID3094, maximum mean response): 65.4 Percent Activity; MAX_MED ([1]; tcpl plot AEID3094, maximum median response): 67.7 Percent Activity; tp (winning model) ([1]; tcpl plot AEID3094, top of winning curve fit (Hill or gain-loss), hit calls only): 89.3; Cell Count ACC (RUES2-GLR cells): 61.5464 µM; DevTox-GLR Endo CC (RUES2-GLR cells): 61.55 µM; Cell Count % Max Inhibition (RUES2-GLR cells; Table S2, cell count relative to DMSO): 76.1511%; MAX_MEAN ([2]; tcpl plot AEID3093, maximum mean response): 6.64 Percent Activity; MAX_MED ([2]; tcpl plot AEID3093, maximum median response): 12.4 Percent Activity; HIT−CALL [6]: 0; MAX_MEAN [6]: 1.95 Percent Activity; MAX_MED [6]: 1.69 Percent Activity
3 | CO[C@H]1/C=C/O[C@@]2(C)Oc3c(C)c(O)c4c(O)c(c(/C=N/N5CCN(C)CC5)c(O)c4c3C2=O)NC(=O)/C(C)=C\C=C\[C@H](C)[C@H](O)[C@@H](C)[C@@H](O)[C@@H](C)[C@H](OC(C)=O)[C@@H]1C [Rifampicin] | 101 | 102 | 101 | 67.6 | 108 | Positive | 37.8542 | 37.85 | 1 | 92.4 | 18.1066 | 7.3 | 7.36 | 0 | 2.46 | Positive | Teratogen | Pos | 0.548 | 0.542 | DevTox-GLR Endo CC (RUES2-GLR cells; human, 48 h): 18.11 µM
4 | O=C1NS(=O)(=O)c2ccccc21 [Saccharin] | 13 | 11 | 13 | – | – | Negative | >200 | – | 0 | 17.9 | >200 | 10.2 | 10.9 | 0 | – | Negative | Non-Teratogen | Neg | 0.945 | 0.563 | AC50 [1, 13]: > 200 µM; CC50 at 48 h (in vitro): > 200 µM; HIT−CALL [6]: 0; MAX_MEAN [6]: 1.1 Percent Activity; MAX_MED [6]: 1.04 Percent Activity; IC50 [7]: > 400 µM; hPST TC50 (H9 human ESC line; [14]): >400 µM; hPST TC50 (H9 human ESC line; hPST cytotoxicity): > 400 µM; DT Class. ([4]; chemicals common with hPST): Neg; Developmental Toxicant Classification ([4]; reference chemicals): Negative
5 | [H]/N=C(/NCCCCC)N/N=C/c1c[nH]c2ccc(OC)cc12 [Tegaserod Maleate] | 102 | 102 | 102 | 5.32 | 102 | Positive | 4.472 | – | 1 | 98.8 | – | 6.89 | 6.94 | 0 | – | Negative | Non-Teratogen | – | 2.78 | 2.79 | hit call designation (in words) ([1]; DevTox GLR-Endo prediction against developmental toxicant classification): false positive; AC50 [1, 13]: 5.32 µM; Emax ([1]; read-out: maximum observed effect level class (% max inhibition)): 80 to 100%; CC50 at 48 h (in vitro; RUES2-GLR cells under directed endoderm differentiation): 5.06 µM; Cell Count ACC (RUES2-GLR cells; Table S2, 48 h exposure): 4.239 µM; HIT−CALL [6]: 1; MAX_MEAN [6]: 3.57 Percent Activity; MAX_MED [6]: 2.57 Percent Activity; IC50 [7]: 4.6 µM; hPST TC50 (H9 human ESC line; [14]): 4.5 µM; hPST TC50 (H9 human ESC line; hPST cytotoxicity): 4.5 µM; DT Class. ([4]; chemicals common with hPST): Neg
